Consider four compounds from US20100160356A1, “NOVEL CYCLOBUTYL COMPOUNDS AS KINASE INHIBITORS” (priority 2006, published 2010).

Usually IC50 stands for the concentration needed to halve the response being measured. As a reminder, the melting point is the temperature of the solid-liquid transition. By solubility is commonly meant how much of the substance goes into solution per volume. Read a low solubility as little dissolved substance.

Converted amounts (≈) assume the structure as drawn.

VEGF-2, sequence (P35968 20-1356): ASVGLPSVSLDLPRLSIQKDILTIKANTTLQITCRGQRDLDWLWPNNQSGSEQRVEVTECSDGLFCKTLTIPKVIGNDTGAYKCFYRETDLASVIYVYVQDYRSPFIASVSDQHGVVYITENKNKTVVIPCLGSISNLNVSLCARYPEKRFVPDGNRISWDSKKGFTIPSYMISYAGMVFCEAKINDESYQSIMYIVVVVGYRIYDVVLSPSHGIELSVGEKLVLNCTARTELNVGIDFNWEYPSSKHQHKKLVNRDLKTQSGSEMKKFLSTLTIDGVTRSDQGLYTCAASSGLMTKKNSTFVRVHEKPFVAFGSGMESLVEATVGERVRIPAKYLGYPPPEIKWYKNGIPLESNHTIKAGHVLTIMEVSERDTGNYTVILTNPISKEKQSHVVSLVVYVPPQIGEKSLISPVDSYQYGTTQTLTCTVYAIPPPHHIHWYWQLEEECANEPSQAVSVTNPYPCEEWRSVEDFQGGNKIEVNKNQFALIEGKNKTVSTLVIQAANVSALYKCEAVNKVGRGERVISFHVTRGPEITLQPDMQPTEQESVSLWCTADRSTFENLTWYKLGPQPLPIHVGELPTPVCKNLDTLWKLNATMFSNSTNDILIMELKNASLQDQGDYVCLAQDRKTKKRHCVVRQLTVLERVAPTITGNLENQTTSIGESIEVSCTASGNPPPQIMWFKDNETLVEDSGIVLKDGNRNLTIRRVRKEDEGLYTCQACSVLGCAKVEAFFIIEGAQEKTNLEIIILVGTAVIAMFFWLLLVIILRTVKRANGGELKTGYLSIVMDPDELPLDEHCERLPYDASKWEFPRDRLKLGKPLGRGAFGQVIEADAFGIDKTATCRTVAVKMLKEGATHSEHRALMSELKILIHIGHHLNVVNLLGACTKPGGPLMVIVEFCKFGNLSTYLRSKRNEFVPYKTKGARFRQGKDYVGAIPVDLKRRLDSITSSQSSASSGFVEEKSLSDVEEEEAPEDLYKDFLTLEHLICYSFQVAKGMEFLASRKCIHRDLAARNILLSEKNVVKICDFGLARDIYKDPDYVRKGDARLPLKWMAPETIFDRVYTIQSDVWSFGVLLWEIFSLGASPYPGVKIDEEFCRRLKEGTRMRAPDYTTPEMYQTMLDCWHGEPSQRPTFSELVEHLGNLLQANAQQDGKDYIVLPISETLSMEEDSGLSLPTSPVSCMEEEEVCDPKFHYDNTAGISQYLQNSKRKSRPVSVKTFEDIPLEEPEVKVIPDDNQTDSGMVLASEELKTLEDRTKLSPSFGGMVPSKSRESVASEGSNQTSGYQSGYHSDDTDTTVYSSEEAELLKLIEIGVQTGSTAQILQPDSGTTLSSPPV
IGF1R, sequence (P08069 31-1367, species assumed): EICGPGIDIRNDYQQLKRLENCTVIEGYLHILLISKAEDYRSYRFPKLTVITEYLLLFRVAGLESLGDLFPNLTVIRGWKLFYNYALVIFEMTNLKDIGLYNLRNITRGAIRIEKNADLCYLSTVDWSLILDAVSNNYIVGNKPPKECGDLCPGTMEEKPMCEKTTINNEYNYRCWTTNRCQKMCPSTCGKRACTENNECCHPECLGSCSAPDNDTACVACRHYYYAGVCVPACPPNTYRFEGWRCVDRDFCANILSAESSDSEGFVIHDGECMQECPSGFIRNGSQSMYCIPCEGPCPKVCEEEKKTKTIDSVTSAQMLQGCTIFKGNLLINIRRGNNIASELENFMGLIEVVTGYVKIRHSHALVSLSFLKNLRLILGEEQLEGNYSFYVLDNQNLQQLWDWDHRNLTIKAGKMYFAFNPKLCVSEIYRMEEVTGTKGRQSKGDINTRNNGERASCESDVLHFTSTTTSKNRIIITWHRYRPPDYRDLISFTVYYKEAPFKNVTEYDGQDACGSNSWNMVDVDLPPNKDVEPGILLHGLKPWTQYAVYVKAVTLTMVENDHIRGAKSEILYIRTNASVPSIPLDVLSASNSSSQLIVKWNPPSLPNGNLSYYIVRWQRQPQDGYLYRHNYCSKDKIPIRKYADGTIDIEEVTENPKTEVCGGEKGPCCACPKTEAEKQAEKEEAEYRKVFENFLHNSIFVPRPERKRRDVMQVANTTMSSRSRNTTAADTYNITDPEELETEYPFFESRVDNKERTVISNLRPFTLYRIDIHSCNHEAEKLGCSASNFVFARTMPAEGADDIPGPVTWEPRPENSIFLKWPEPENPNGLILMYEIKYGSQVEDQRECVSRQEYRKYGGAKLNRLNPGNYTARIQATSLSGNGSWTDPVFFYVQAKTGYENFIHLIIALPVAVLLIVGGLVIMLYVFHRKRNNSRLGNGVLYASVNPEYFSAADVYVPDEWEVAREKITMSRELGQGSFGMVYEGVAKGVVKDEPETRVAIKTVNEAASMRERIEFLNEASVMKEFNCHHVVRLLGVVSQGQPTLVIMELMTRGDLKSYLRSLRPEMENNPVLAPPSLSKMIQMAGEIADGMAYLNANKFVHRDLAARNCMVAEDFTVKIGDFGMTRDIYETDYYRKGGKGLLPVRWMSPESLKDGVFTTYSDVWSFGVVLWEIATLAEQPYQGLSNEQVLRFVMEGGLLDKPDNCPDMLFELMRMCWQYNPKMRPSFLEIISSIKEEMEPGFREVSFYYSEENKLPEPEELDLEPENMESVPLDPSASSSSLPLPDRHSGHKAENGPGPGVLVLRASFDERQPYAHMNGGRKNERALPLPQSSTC
TIE2, sequence (Q02763 23-1124, species assumed): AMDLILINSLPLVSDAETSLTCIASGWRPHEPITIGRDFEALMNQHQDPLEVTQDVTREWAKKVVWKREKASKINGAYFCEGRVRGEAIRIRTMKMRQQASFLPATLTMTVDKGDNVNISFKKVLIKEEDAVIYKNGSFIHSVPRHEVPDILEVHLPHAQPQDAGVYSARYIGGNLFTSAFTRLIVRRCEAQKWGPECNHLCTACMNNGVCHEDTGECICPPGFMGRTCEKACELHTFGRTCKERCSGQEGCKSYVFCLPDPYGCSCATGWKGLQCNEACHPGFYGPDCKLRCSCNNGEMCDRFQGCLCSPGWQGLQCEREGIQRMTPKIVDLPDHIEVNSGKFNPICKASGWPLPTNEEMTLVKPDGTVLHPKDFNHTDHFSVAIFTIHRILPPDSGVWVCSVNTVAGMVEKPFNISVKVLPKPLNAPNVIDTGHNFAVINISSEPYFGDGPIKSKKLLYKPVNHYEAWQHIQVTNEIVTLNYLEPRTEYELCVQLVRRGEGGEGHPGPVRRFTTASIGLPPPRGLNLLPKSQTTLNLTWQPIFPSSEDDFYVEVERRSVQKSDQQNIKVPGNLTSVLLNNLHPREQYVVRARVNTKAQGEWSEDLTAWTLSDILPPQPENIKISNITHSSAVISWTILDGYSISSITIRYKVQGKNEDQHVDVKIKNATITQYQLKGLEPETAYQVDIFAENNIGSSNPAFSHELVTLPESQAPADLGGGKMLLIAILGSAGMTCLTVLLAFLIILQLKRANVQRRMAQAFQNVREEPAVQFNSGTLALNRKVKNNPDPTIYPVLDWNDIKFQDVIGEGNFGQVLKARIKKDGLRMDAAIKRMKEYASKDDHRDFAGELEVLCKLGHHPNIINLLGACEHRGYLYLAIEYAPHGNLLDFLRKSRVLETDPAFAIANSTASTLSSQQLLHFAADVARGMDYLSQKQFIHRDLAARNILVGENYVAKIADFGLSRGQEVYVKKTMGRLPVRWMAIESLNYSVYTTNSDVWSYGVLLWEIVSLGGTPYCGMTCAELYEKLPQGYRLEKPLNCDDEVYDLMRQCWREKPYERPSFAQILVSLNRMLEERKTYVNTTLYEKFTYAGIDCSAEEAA
PDGFRβ, sequence (P09619 33-1106, species assumed): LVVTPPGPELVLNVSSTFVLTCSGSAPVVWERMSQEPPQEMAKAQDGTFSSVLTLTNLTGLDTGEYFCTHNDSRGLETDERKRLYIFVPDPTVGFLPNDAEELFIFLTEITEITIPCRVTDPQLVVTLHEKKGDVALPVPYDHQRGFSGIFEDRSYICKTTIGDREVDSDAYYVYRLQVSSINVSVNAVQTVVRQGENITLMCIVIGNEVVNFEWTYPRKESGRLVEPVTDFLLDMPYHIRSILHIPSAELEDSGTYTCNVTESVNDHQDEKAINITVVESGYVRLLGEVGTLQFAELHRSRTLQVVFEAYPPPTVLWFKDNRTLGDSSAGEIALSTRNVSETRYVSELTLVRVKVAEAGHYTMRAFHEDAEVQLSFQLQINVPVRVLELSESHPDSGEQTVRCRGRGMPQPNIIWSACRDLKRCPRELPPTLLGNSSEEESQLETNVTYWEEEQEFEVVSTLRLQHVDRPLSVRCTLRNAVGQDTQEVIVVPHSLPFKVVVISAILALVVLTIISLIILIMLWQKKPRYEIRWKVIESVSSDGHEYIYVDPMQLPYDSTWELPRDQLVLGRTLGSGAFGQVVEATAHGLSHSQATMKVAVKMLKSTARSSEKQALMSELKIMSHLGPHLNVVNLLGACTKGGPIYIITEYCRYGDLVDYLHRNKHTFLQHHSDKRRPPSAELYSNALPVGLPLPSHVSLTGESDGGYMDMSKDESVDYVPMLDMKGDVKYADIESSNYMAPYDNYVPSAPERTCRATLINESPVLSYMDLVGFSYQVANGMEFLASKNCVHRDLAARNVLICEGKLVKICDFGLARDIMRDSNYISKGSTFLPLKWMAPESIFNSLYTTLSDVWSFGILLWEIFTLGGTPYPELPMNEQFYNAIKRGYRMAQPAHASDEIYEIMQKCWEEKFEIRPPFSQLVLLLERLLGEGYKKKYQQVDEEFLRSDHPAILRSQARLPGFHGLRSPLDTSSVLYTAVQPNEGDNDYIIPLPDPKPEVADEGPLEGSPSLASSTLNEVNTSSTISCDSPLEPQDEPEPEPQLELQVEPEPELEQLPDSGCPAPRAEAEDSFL
T4 sequence (P08069 31-1367): as the sequence (P08069 31-1367, species assumed) above

The first data set has as its target IGF1R (Homo sapiens, UniProt P08069). Description: Inhibition of IGF1R (flashplate assay). The conditions noted are these: flashplate method. It is filed as biochemical. Here is the method: (§1) The test plates used are 96-well flashplate microtitre plates from Perkin Elmer (USA). The components of the kinase reaction are pipetted into the assay plate. The IGF1R kinase is incubated for 1 hr. with radioactively labelled ^33P-ATP in the presence and absence of test substances in a total volume of 100 μl at room temperature together with biotinylated poly(Glu, Tyr)4:1. The reaction is terminated using 25 μl of a 200 mM EDTA solution. After incubation for a further 30 min at room temperature, the supernatants are removed by suction, and the wells are washed three times with 100 μl of 0.9% NaCl solution each time. The radioactivity is measured using a Topcount scintillation counter (PerkinElmer, USA). IC50 values are calculated using the RS1 computer program.
With `NCC1CC(n2cc(-c3ccc(N)cc3)c3c(N)ncnc32)C1` (centres unmarked) [Compound 5], the IC50 stood at 2300 nM.

`CCCCOc1cccc(-c2cn(C3CC(CN)C3)c3ncnc(N)c23)c1` (centres unmarked) [Compound 7, 7-(3-Aminomethylcyclobutyl)-5-(3-butoxyphenyl)-7H-pyrrolo[2,3-d]pyrimidin-4-ylamine]: the IC50 is 1200 nM.

`NCC1CC(n2cc(-c3cccc(N)c3)c3c(N)ncnc32)C1` (centres unmarked) [Compound 23]: the half-maximal inhibitory concentration (IC50) was 7600 nM.

The next data set addresses TIE2 (Homo sapiens, UniProt Q02763). Description: Inhibition of TIE2 (flashplate assay). The format is biochemical. The conditions noted are these: flashplate method. The procedure: B4: inhibition of T1E2 (Flashplate Assay)
as §1, with “are 384-well” for “are 96-well”, “The TIE2” for “The IGF1R”, “for 3” for “for 1”
`CCCCOc1cccc(-c2cn(C3CC(CN)C3)c3ncnc(N)c23)c1` (centres unmarked) [Compound 7, 7-(3-Aminomethylcyclobutyl)-5-(3-butoxyphenyl)-7H-pyrrolo[2,3-d]pyrimidin-4-ylamine] had an IC50 of 910 nM.

As for `NCC1CC(n2cc(-c3ccsc3)c3c(N)ncnc32)C1` (centres unmarked) [Compound 40], the midpoint of inhibition, the IC50, lay at 9300 nM.

The target in a further data set is PDGFRβ (Homo sapiens, UniProt P09619). Description: Inhibition of PDGFRβ (flashplate assay). The format is biochemical. The conditions noted are these: flashplate method. Here is the method:
as §1, with “The PDGFRβ” for “The IGF1R”, “for 3” for “for 1”, “temperature (here autophosphorylation of the kinase).” for “temperature together with biotinylated poly(Glu, Tyr)4:1.”, “using 150” for “using 25”, “a 60” for “a 200”, “with 200” for “with 100”
Take `NCC1CC(n2cc(-c3ccc(N)cc3)c3c(N)ncnc32)C1` (centres unmarked) [Compound 5]: half-maximal inhibition (IC50) was put at 630 nM.

As to `NCC1CC(n2cc(-c3ccsc3)c3c(N)ncnc32)C1` (centres unmarked) [Compound 40], 750 nM corresponded to half-maximal inhibition (IC50).

Tested on in another data set: not given
Experiment: not given
Conditions: not given
For `NCC1CC(n2cc(-c3ccc(N)cc3)c3c(N)ncnc32)C1` (centres unmarked) [Compound 5], the melting point is 319.5 to 321 °C (dec.).

In turn, `NCC1CC(n2cc(-c3ccsc3)c3c(N)ncnc32)C1` (centres unmarked) [Compound 40] returned a melting point of 109 to 111 °C.

Tested on in the next data set: not listed separately
As to the kind of experiment: Solubility in phosphate buffer by the shake flask method. It is filed as physicochemical. The following applies: 37 °C, pH 7, aqueous buffer, thermodynamic from solid, pH 7.0, 37° C., 24 h shake flask. Here is the method:
The procedure described in Glomme et al. (J. Pharm. Sci. 94(1): 1-16, 2005) is followed. The concentration determination is carried out by HPLC with UV detection against a standard solution.
Buffer: 3.954 g of sodium dihydrogenphosphate monohydrate 6.024 g of sodium chloride +950 ml of ultrapure water. Setting of pH 7.0 using 0.1 M NaOH or 0.1 M HCl.
The samples were shaken at 37° C. and 450 rpm for 24 h. After about 7 h, the pH of the samples was checked and adjusted if necessary. It was checked whether the sample was still present in excess. Just before the end of the 24 h shaking time, the samples were again checked for pH and a precipitate.
• Ultrapure water plant: MilliQ gradient, Millipore, unit: F3PN37462D • Shaker: TiMix control, Bühler • Incubation hood: TH 15, Bühler • pH meter: 766 Calimatic Knick instrument: pH 1 • pH electrode: InLab 423 Mettler • HPLC: column: LiChroCart 125-4 LiChrospher 100 RP-18 • flow rate: 1.000 ml/min • eluents: • eluent A: 2 ml of diethylamine, for synthesis+1000 ml of methanol, LiChrosolv • eluent B: 5 g of ammonium acetate, for analysis+5 ml of methanol, LiChrosolv+995 ml of ultrapure water
As to `NCC1CC(n2cc(-c3ccc(N)cc3)c3c(N)ncnc32)C1` (centres unmarked) [Compound 5], the concentration in solution (solubility at 24 h) came to 1090 µg/mL (≈ 3.53 mM).

Regarding `CCCCOc1cccc(-c2cn(C3CC(CN)C3)c3ncnc(N)c23)c1` (centres unmarked) [Compound 7, 7-(3-Aminomethylcyclobutyl)-5-(3-butoxyphenyl)-7H-pyrrolo[2,3-d]pyrimidin-4-ylamine], the solubility at 24 h came to 1120 µg/mL (≈ 3.07 mM).

The target in the next data set is T1, SGK1 (Homo sapiens, UniProt O00141).
T1 sequence (O00141 1-431): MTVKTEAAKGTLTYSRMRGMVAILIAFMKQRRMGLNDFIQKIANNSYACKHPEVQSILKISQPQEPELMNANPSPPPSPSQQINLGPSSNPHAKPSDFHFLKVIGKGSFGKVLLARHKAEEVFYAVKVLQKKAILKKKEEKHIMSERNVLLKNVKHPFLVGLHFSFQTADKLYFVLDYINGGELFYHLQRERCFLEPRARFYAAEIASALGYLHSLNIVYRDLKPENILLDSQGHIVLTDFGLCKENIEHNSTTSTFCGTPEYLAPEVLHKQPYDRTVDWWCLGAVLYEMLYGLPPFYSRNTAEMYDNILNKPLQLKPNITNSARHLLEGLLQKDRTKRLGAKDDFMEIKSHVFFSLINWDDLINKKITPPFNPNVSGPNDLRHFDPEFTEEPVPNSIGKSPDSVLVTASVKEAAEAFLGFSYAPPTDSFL
Description: Inhibition of SGK1 (flashplate assay). It is filed as biochemical. The following applies: flashplate method. Here is the method: as §1, with “are 384-well” for “are 96-well”, “The SGK1” for “The IGF1R”, “for 3” for “for 1”
`NCC1CC(n2cc(-c3cccc(N)c3)c3c(N)ncnc32)C1` (centres unmarked) [Compound 23] gave an IC50 of 1950 nM.

`NCC1CC(n2cc(-c3ccsc3)c3c(N)ncnc32)C1` (centres unmarked) [Compound 40] registered an IC50 of 8400 nM.

Another data set has as its target VEGF-2 (Homo sapiens, UniProt P35968). As to the kind of experiment: Inhibition of VEGF-2 (flashplate assay). It is filed as biochemical. The following applies: flashplate method. Here is the method: as §1, with “are 384-well” for “are 96-well”, “The VEGF-2” for “The IGF1R”, “for 3” for “for 1”
The compound `NCC1CC(n2cc(-c3ccc(N)cc3)c3c(N)ncnc32)C1` (centres unmarked) [Compound 5] came in with an IC50 of 630 nM.

`CCCCOc1cccc(-c2cn(C3CC(CN)C3)c3ncnc(N)c23)c1` (centres unmarked) [Compound 7, 7-(3-Aminomethylcyclobutyl)-5-(3-butoxyphenyl)-7H-pyrrolo[2,3-d]pyrimidin-4-ylamine] returned an IC50 of 9100 nM.

`NCC1CC(n2cc(-c3ccsc3)c3c(N)ncnc32)C1` (centres unmarked) [Compound 40] registered an IC50 of 1800 nM.

The next data set concerns the target T2, TGFβR1 (Homo sapiens, UniProt P36897).
T2 sequence (P36897 34-503): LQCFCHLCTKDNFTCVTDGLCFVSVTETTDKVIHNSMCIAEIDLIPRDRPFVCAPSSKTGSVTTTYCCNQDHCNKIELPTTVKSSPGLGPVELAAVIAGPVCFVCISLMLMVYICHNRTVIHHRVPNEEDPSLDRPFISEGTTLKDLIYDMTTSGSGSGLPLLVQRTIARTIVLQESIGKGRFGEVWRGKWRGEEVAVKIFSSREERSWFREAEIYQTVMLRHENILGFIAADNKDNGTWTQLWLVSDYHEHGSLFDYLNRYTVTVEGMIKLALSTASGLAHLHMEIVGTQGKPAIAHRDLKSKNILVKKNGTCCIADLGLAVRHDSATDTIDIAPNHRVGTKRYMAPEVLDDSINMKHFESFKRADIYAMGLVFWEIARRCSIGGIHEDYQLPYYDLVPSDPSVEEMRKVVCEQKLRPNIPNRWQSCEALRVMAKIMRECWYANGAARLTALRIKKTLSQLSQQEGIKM
As to the kind of experiment: Inhibition of TGFβR1 (flashplate assay). The following applies: flashplate method. The format is biochemical. Here is the method:
The test is carried out as described in Example B1b for IGF1R. A biotinylated is added to the TGFβR1 kinase.
The kinase assay is carried out as a 384-well flashplate assay.
The components of the kinase reaction are pipetted into the assay plate. The TGFβR1 kinase is incubated for 45 min with radioactively labelled ^33P-ATP in the presence and absence of test substances together with biotinylated substrate in a total volume of 35 μl. The reaction is terminated using 25 μl of 200 mM EDTA solution, removed by suction after 30 min at room temperature, and the wells are washed with three times with 100 μl of 0.9% NaCl solution each time. The radioactivity is measured using a Topcount scintillation counter (PerkinElmer, USA). IC50 values are calculated using the RS1 computer program.
As to `NCC1CC(n2cc(-c3ccc(N)cc3)c3c(N)ncnc32)C1` (centres unmarked) [Compound 5], 2900 nM corresponded to half-maximal inhibition (IC50).

Take `NCC1CC(n2cc(-c3cccc(N)c3)c3c(N)ncnc32)C1` (centres unmarked) [Compound 23]: the IC50 is 810 nM.

`NCC1CC(n2cc(-c3ccsc3)c3c(N)ncnc32)C1` (centres unmarked) [Compound 40] had an IC50 of 2200 nM.

In a further data set the target is T3, FAK (focal adhesion kinase) (Homo sapiens, UniProt Q05397).
T3 construct: endogenous in cells; host or cells: Calu-6 or HT-29
As to the kind of experiment: Inhibition of FAK (ELISA assay), FAK phosphorylation in cells. The format is cell-based. The following applies: human cells with FAK amplification. The procedure: Activated FAK promotes the invasive growth of tumour cells and inhibits anoikis.
The amount of phosphorylated FAK is determined by a specific capture ELISA or an analogous LUMINEX assay. FAK from cell lysates is bound to a 96-well ELISA plate or LUMINEX beads by means of a specific antibody (“capturing”), and the tyrosine phosphorylation is detected using a biotin-labelled anti-phosphotyrosine antibody and a streptavidin-peroxidase conjugate by a chemiluminescence method or by means of a fluorescence-labelled anti-phosphotyrosine antibody.
For determination of the activity of kinase inhibitors, cells are pretreated with increasing concentrations of these compounds for 45 min, and the FAK phosphorylation is then determined. As internal control, a concentration series of a reference inhibitor is measured.
`NCC1CC(n2cc(-c3cccc(N)c3)c3c(N)ncnc32)C1` (centres unmarked) [Compound 23] gave an IC50 of 1210 nM.

In turn, `NCC1CC(n2cc(-c3ccsc3)c3c(N)ncnc32)C1` (centres unmarked) [Compound 40] registered an IC50 of 2600 nM.

Another data set has as its target T4, IGF1 receptor (IGF1R) (Homo sapiens, UniProt P08069).
T4 construct: endogenous in cells; host or cells: MCF-7 or Calu-6
As to the kind of experiment: Inhibition of IGF1R (ELISA assay), IGF1-stimulated autophosphorylation in cells. The format is cell-based. The conditions noted are these: human tumour cells stimulated with IGF1, read-out: IC50 IGF (ELISA). The procedure:
The stimulation induces an autophosphorylation of tyrosine residues in the cytoplasmatic IGF1R domain, which triggers signal transduction cascades, which result in inhibition of apoptosis and proliferation of the cells.
The amount of phosphorylated IGF1R is determined by a receptor-specific capture ELISA or an analogous LUMINEX assay. The IGF1R from cell lysates is bound to a 96-well ELISA plate or LUMINEX beads by means of a specific antibody (“capturing”), and the tyrosine phosphorylation is detected using a biotin-labelled anti-phosphotyrosine antibody and a streptavidin-peroxidase conjugate by a chemiluminescence method or by means of a fluorescence-labelled anti-phosphotyrosine antibody.
For determination of the activity of kinase inhibitors, cells are pretreated with increasing concentrations of these compounds for 45 min and subsequently stimulated using IGF1 for 5 min. As internal control, the biological activity of the ligand IGF1 is checked, and a concentration series of an IGF1R reference inhibitor is measured.
Regarding `NCC1CC(n2cc(-c3cccc(N)c3)c3c(N)ncnc32)C1` (centres unmarked) [Compound 23], the IC50 worked out at 14000 nM.

As for `NCC1CC(n2cc(-c3ccsc3)c3c(N)ncnc32)C1` (centres unmarked) [Compound 40], the IC50 amounted to 18000 nM.
